In ChEMBL document CHEMBL1155201, “Structure-activity studies on seco-pancratistatin analogs: potent inhibitors of human cytochrome P450 3A4” (Bioorg Med Chem Lett, 2009):

biological target: T1, Cytochrome P450 3A4 (Homo sapiens, UniProt P08684); assay: Inhibition of human recombinant CYP3A4 assessed as biotransformation of 7-benzyloxyquinoline to 7-hydroxyquinoline measured every 15 mins by fluorescence intensity analysis; assay type: ADME; settings: not given
T1 sequence (P08684 whole entry): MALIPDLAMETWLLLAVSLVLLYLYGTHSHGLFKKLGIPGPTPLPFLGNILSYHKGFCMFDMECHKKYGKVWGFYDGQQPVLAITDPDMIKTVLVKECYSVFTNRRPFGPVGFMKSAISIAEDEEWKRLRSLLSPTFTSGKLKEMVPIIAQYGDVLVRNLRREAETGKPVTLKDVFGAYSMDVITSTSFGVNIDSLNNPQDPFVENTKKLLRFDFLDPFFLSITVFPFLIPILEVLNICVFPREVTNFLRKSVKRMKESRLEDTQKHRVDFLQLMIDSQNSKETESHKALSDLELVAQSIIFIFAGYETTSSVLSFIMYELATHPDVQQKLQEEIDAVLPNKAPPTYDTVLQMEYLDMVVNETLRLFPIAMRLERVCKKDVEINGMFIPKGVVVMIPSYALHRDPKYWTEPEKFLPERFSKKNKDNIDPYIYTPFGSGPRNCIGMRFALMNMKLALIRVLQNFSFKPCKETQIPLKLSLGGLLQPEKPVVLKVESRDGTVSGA

Row | Ki | SMILES
1 | 30 nM | COCO[C@@H]([C@@H]1OC(C)(C)O[C@H]1CO[Si](C)(C)C(C)(C)C)[C@@H](CNC(=O)c1ccccc1)c1ccc2c(c1)OCO2
2 | 580 nM | COCO[C@@H]([C@@H]1OC(C)(C)O[C@H]1CO[Si](c1ccccc1)(c1ccccc1)C(C)(C)C)[C@@H](CNC(=O)c1ccccc1)c1ccc2c(c1)OCO2
3 | 1550 nM | COCO[C@@H]([C@@H]1OC(C)(C)O[C@H]1CO)[C@@H](CNC(=O)c1ccccc1)c1ccc2c(c1)OCO2
4 | 1010 nM | COCO[C@@H]([C@@H]1OC(C)(C)O[C@H]1COC(C)=O)[C@@H](CNC(=O)c1ccccc1)c1ccc2c(c1)OCO2
5 | 170 nM | CC1(C)O[C@@H]([C@H](O)[C@@H](CNC(=O)c2ccccc2)c2ccc3c(c2)OCO3)[C@H](CO[Si](C)(C)C(C)(C)C)O1
6 | 320 nM | COCO[C@@H]([C@@H]1OC(C)(C)O[C@H]1CO[Si](C)(C)C(C)(C)C)[C@@H](CNC(=O)OC(C)(C)C)c1ccc2c(c1)OCO2
7 | 70 nM | COCO[C@@H]([C@@H]1OC(C)(C)O[C@H]1COS(=O)(=O)c1ccc(C)cc1)[C@@H](CNC(=O)c1ccccc1)c1ccc2c(c1)OCO2

biological target: T1, Cytochrome P450 3A4; assay: Inhibition of human recombinant CYP3A4 assessed as biotransformation of 7-benzyloxyquinoline to 7-hydroxyquinoline at 10 uM measured every 15 mins by fluorescence intensity analysis; assay type: ADME; settings: recombinant enzyme, 0.25 h

Row | inhibition (INH) | SMILES
8 | Not Active | O=C(NC[C@@H](c1ccc2c(c1)OCO2)[C@@H](O)[C@H](O)[C@@H](O)CO)c1ccccc1
9 | Not Active | CC1(C)O[C@@H]([C@H](OC(=O)c2ccccc2)[C@@H](CN=[N+]=[N-])c2ccc3c(c2)OCO3)[C@H](CO[Si](C)(C)C(C)(C)C)O1
10 | Not Active | COCO[C@@H]([C@@H]1OC(C)(C)O[C@H]1CO[Si](C)(C)C(C)(C)C)[C@@H](CN=[N+]=[N-])c1ccc2c(c1)OCO2
11 | Not Active | CC1(C)O[C@@H]([C@H](O)[C@@H](CNC(=O)c2ccccc2)c2ccc3c(c2)OCO3)[C@H](CO)O1
